The text below walks through data of patent US11446276B2, “Extreme low dose THC as a therapeutic and prophylactic agent for Alzheimer's disease” (University of South Florida, priority 2015, dated 2022).

Data set [1] has as its system GSK-3β. The data set can be described thus: Western blot of GSK-3β in N2a/AβPPswe cells. The class given is cell-based. The protocol:
Next, the effects of THC on amyloid protein processing were analyzed by testing total GSK-30 and phosphorylated GSK-3β (pGSK-3β) levels. β-actin, a housekeeping gene, was used as a control to indicate that GSK-3β was expressed at a constant rate and that the changes in intensity were not related to the change in expression amount.
The cellular effects of THC were next analyzed. As Aβ processing is mediated by GSK-3β, protein levels were tested. N2a/AβPPswe cells were treated with 2.5 nM or 0.25 nM of THC, as provided in Example 1, and N2a/AβPPswe cell lysate were collected, quantified, and aliquoted.
N2a/AβPPswe cells were cultured as provided above and Δ9-THC added at 0.25 nM and 2.5 nM, as provided in Example 1. After THC treatment for 48 hours, N2a/AβPPswe cell lysate were collected, quantified, and aliquoted. Using 12% Tris-Glycine gel system (Bio-Rad Laboratories, Inc., Hercules, Calif.), protein were separated by electrophoresis and semi-dry transferred to a polyvinylidene difluoride (PVDF) membrane. GSK-3β (Cat #9315, Cell Signaling Technology, Inc. Danvers, Mass.) and β-actin (Cat #A54441, Sigma Aldrich, Merck KGaA; Darmstadt, Germany) antibodies were used as primary antibody. After adding secondary antibody (Goat-anti-Rabbit-HRP Cat #4050-05, Southern Biotech, part of Thermo Fisher Scientific, Waltham, Mass.; Anti-mouse IgG-HRP Cat #A9044, Sigma Aldrich, Merck KGaA; Darmstadt, Germany), the membranes were exposed using ECL substrate (Pierce). After membrane was developed, film with bands were scanned, followed by analysis of gel-quantification software (QuantityOne, from Bio-rad).
The effects of combining THC with other compounds was analyzed using a combination of THC and melatonin. Cells were treated with 2.5 nM of THC and 10 μM or 1 μM melatonin, using the methods discussed above, and N2a/AβPPswe cell lysate collected, quantified, and aliquoted. […] After membrane was developed, film with bands were scanned, followed by analysis of gel-quantification software (QuantityOne, from Biorad).
Background: Immunoblotting shows a protein as a band on a membrane.

The subject of data set [2] is isolated mitochondria from N2a/AβPPswe cells. Kind of data set: Respiratory function of isolated mitochondria (Clark type oxygen electrode). The data set is classed as cell-based. The protocol: FIG. 14A is a graph showing basal mitochondrial function after treatment with THC and a combination of THC and melatonin. N2a/AβPPswe cells were cultured in 10 cm tissue culture plate and then treated with drugs for 36 hours and mitochondria were harvested and tested for their ability of using oxygen utilization. Samples were loaded as follows; Ctrl, Control, or 10^−5 M Melatonin with 2.5 nM THC, 10^−6 M Melatonin with 2.5 nM THC, 2.5 nM THC, 10^−5 M Melatonin, or 10^−6 M Melatonin+2.5 nM THC.
FIG. 14B is a graph showing mitochondrial function in the presence of FCCP after treatment with THC alone as well as with a combination of THC and melatonin. N2a/AβPPswe cells were cultured in 10 cm tissue culture plate and then treated with drugs for 36 hours and mitochondria were harvested and tested for their ability of using oxygen utilization. Samples were loaded as follows; Ctrl, Control, or 10^−5 M Melatonin with 2.5 nM THC, 10^−6 M Melatonin with 2.5 nM THC, 2.5 nM THC, 10^−5 M Melatonin, or 10^−6 M Melatonin+2.5 nM THC.

Data set [3] addresses AChE induced Aβ aggregation (Homo sapiens, UniProt P22303). To be noted: THC 50 μM; cited from earlier work.
The subject of data set [4] is GSK-3β. The settings on record: 10 mg/kg of body weight of THC; mice; cited from earlier work.
The test system of the next data set is N2a/AβPPswe cells. The data set can be described thus: MTT toxicity assay. To be noted: 36 hours; different concentrations; versus untreated cells; FIG. 9A.
Another data set deals with T1, Aβ1-40 peptide (Homo sapiens, UniProt P05067).
T1 construct: purchased Biomer Technology, Pleasanton, Calif
Kind of data set: ThT assay of Aβ aggregation. The class given is biochemical. The settings on record: THC 0.25-250 nM; Aβ1-40 1 μM; FIG. 3A. The protocol:
A ThT assay was conducted to examine the interaction between THC and Aβ, as ThT incorporates into Aβ when the amyloid protein aggregates, indicating whether there is a direct interaction between THC and Aβ aggregation.
Hexafluoroisopropanol-(HFIP) pretreated Aβ1-40 peptide (Biomer Technology, Pleasanton, Calif.). THC solution was prepared at concentration of 250 nM, 25 nM, 2.5 nM, and 0.25 nM in thioflavin T (ThT) (1.6 μg/mL dissolved in 20 mM Tris-HCL). The THC-ThT was added into black 96 well plates. Unaggregated Aβ peptide solution was thawed, diluted, and immediately added to wells, making the final concentration of Aβ1-40 at 1 μM. Control groups were setup as: 1) aggregation control; 2) control with ThT buffer only; and 3) Tris-HCl buffer only. Plate was mixed and fluorescence was read at 482 nm with excitation 440 nm with Biotek All-in-One plate reader. Fluorescence was screened for 2 hours with 5-minute intervals.

Structures are written as SMILES. Entries after “also recorded” stand apart in the source; their conditions may differ. Where only a bound is given, the exact number is not on record here.

T1 sequence (P05067 672-711): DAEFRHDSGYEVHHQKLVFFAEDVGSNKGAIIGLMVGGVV
AChE induced Aβ aggregation, sequence (P22303 32-614): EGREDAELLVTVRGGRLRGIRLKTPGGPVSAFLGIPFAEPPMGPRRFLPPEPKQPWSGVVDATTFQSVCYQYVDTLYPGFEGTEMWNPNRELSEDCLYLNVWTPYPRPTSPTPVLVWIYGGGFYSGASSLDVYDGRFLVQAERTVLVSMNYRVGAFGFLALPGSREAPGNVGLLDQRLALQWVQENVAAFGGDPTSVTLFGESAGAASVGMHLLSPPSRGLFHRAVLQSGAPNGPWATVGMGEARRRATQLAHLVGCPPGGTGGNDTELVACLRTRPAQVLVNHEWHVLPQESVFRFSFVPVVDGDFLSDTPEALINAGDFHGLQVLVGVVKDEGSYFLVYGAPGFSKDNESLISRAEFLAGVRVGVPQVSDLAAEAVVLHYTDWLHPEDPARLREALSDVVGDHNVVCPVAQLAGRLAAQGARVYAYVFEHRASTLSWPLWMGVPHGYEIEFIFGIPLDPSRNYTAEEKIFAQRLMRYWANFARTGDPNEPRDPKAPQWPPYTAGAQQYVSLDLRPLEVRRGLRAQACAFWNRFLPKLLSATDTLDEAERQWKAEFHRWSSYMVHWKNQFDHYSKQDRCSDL

On to `CCCCCc1cc(O)c2c(c1)OC(C)(C)[C@@H]1CCC(C)=C[C@@H]21` [THC, Δ9-tetrahydrocannabinol], for which the “GSK-3β protein levels (ratio to β-actin)” value in the data set on GSK-3β [1] (THC 0.25 nM and 2.5 nM, 48 hours, FIGS. 5A, 5B) was “dose-dependent decrease; also recorded: decreases the GSK-3β protein levels”. Further, the “GSK-3 levels relative to the control” value in the data set on GSK-3β [1] (lowest level of THC from the tests) is “about half”. For the same compound, the “Decrease of GSK-3β protein levels over the untreated control” value with GSK-3β [1] (ultra-low doses of THC, FIGS. 5A, 5B) is on record as ≤ 50%. The “Respiration / oxygen utilization of isolated mitochondria” value in data set [2] (2.5 nM THC alone or with 10 μM or 1 μM melatonin, early and late stages of respiration) was “higher oxygen utilization”. The “Basal mitochondrial function (oxygen utilization)” value in data set [2] (36 hours treatment, FIG. 14A) is “enhance mitochondrial function”. For the same compound, the “Mitochondrial function in the presence of FCCP” value in data set [2] (36 hours treatment, FIG. 14B) is “enhance mitochondrial function”. In addition, the “AChE induced Aβ aggregation” value in data set [3] was “prevents AChE induced Aβ aggregation”. Further, the “Phosphorylation of GSK-3β” value with GSK-3β [4] is “increased phosphorylation of GSK-3β”. The “Toxicity (reduction of MTT, OD)” value in the data set with N2a/AβPPswe cells is on record as “no significant difference from the control; also recorded: no toxicity; also recorded: lack of toxicity”. For the same compound, the “Thioflavin T fluorescence intensity / Aβ aggregation” value on Aβ1-40 peptide is given as “lowers Aβ aggregation; also recorded: dose-dependent decrease; also recorded: inhibits Aβ40 aggregation”.
